According to patent publication US20050003000A1, “Method for the formation of ibuprofen crystals” (priority 2001, published 2005):

Test: Powder dissolution / in vitro release rate of the pure active compound, phosphate buffer pH 7.4 USP XXIV, paddle process 100 rpm
Type: physicochemical
Conditions: for Rate of dissolution (in words) / Active compound dissolved after 5 min / Active compound dissolved after 8 min: 3 l scale crystallizate; for Amount released [%] after 2 min: Table 3, ibuprofen crystallized by displacement precipitation
Description: The measurements of the release rate was carried out according to USP XXIV.
• 1. 80 g of ibuprofen are dissolved in 100 ml of isopropanol at 40° C. Precipitation is then carried out by addition of ice water (450 ml/stirrer speed 50 rpm) during the course of 70 min. During this process cooling to 10° C. takes place. The crystals are recovered by filtration and dried in vacuo. […] 3.2 g of sucrose monolaurate are added as an additive. Precipitation is then carried out by addition of ice water (450 ml/stirrer speed 200 rpm) during the course of 70 min. During this process cooling to 10° C. takes place. The crystals are recovered by filtration, washed with ice water (3×50 ml) and dried in vacuo. […] 8 g of Tween®80 are added as an additive. Precipitation is then carried out by addition of ice water (450 ml/stirrer speed 200 rpm) during the course of 70 min. During this process cooling to 10° C. takes place. The crystals are recovered by filtration, washed with ice water (3×50 ml) and dried in vacuo. […] 80 g of ibuprofen are dissolved in 100 ml of isopropanol at 40° C. 3 g of sucrose monolaurate are added as an additive. Precipitation is then carried out by addition of ice water (450 ml/stirrer speed 200 rpm) during the course of 70 min; during this process, cooling to 10° C. takes place; the crystals are recovered by filtration, washed with ice water (3×150 ml) and dried in vacuo.

[1] = powder dissolution, pure active compound, phosphate buffer pH 7.4 USP XXIV
[2] = Table 1, ibuprofen powder, time 0 min
[3] = Table 1, ibuprofen powder, time 2 min
[4] = Table 1, ibuprofen powder, time 5 min
[5] = Table 1, ibuprofen powder, time 8 min
[6] = Table 1, ibuprofen powder, time 10 min
[7] = Table 1, ibuprofen powder, time 15 min
[8] = Table 1, ibuprofen powder, time 20 min
[9] = Table 2, ibuprofen powder, time 0
[10] = Table 2, ibuprofen powder, time 2
[11] = Table 2, ibuprofen powder, time 5
[12] = Table 2, ibuprofen powder, time 8
[13] = Table 2, ibuprofen powder, time 10
[14] = Table 2, ibuprofen powder, time 15
[15] = Table 2, ibuprofen powder, time 20

CC(C)Cc1ccc(C(C)C(=O)O)cc1 (stereo not drawn) [Example 5, ibuprofen]
Time after which a 100% release / dissolution is seen [1]: 5 min
Release / dissolution within (after) 2 minutes [1]: 85%

CC(C)Cc1ccc(C(C)C(=O)O)cc1 (stereo not drawn) [Example 6, ibuprofen]
Time after which a 100% release / dissolution is seen [1]: 5 min
Release / dissolution within (after) 2 minutes [1]: 85%

CC(C)Cc1ccc(C(C)C(=O)O)cc1 (stereo not drawn) [Example 11, ibuprofen]
Rate of dissolution (in words): comparatively good rate of dissolution
Active compound dissolved after 5 min: 81%
Active compound dissolved after 8 min: 90%

CC(C)Cc1ccc(C(C)C(=O)O)cc1 (stereo not drawn) [Suc. monolaurate + trehalose, ibuprofen]
Amount released [%] after 2 min: 100.1%

CC(C)Cc1ccc(C(C)C(=O)O)cc1 (stereo not drawn) [Example 15, ibuprofen]
Rate of dissolution (in words): good rate of dissolution

CC(C)Cc1ccc(C(C)C(=O)O)cc1 (stereo not drawn) [Example 13, ibuprofen]
Rate of dissolution (in words): good rate of dissolution
Active compound dissolved after 5 min: 92%
Active compound dissolved after 8 min: 100%

CC(C)Cc1ccc(C(C)C(=O)O)cc1 (stereo not drawn) [Additive: sucrose monolaurate, ibuprofen]
Amount released [%] [2]: 0.0%
Amount released [%] [3]: 85.2%
Amount released [%] [4]: 98.8%
Amount released [%] [5]: 100.0%
Amount released [%] [6]: 100.0%
Amount released [%] [7]: 100.0%
Amount released [%] [8]: 100.0%
Amount released [%] [9]: 0.0%
Amount released [%] [10]: 85.9%
Amount released [%] [11]: 98.4%
Amount released [%] [12]: 99.5%
Amount released [%] [13]: 99.9%
Amount released [%] [14]: 100.7%
Amount released [%] [15]: 100.6%
Amount released [%] after 2 min: 85.2%

CC(C)Cc1ccc(C(C)C(=O)O)cc1 (stereo not drawn) [Suc. monolaurate + Kollicoat ® IR, ibuprofen]
Amount released [%] after 2 min: 97.8%

CC(C)Cc1ccc(C(C)C(=O)O)cc1 (stereo not drawn) [Suc. monolaurate + dextran 200, ibuprofen]
Amount released [%] after 2 min: 100.4%

CC(C)Cc1ccc(C(C)C(=O)O)cc1 (stereo not drawn) [Example 12, ibuprofen]
Rate of dissolution (in words): good rate of dissolution
Active compound dissolved after 5 min: 87%
Active compound dissolved after 8 min: 95%

CC(C)Cc1ccc(C(C)C(=O)O)cc1 (stereo not drawn) [Suc. monolaurate + Klucel ® LF, ibuprofen]
Amount released [%] after 2 min: 98.9%

CC(C)Cc1ccc(C(C)C(=O)O)cc1 (stereo not drawn) [Example 7, ibuprofen]
Time after which a 100% release / dissolution is seen [1]: 5 min
Release / dissolution within (after) 2 minutes [1]: 85%

CC(C)Cc1ccc(C(C)C(=O)O)cc1 (stereo not drawn) [Commercial article, ibuprofen]
Amount released [%] [2]: 0.0%
Amount released [%] [3]: 15.1%
Amount released [%] [4]: 36.9%
Amount released [%] [5]: 59.5%
Amount released [%] [6]: 73.9%
Amount released [%] [7]: 98.0%
Amount released [%] [8]: 99.0%
Amount released [%] [9]: 0.0%
Amount released [%] [10]: 15.1%
Amount released [%] [11]: 36.9%
Amount released [%] [12]: 59.5%
Amount released [%] [13]: 73.9%
Amount released [%] [14]: 98.0%
Amount released [%] [15]: 99.0%
Amount released [%] after 2 min: 15.1%
Time after which a 100% release / dissolution is seen [1]: > 15 min
Release / dissolution within (after) 2 minutes [1]: < 20%

CC(C)Cc1ccc(C(C)C(=O)O)cc1 (stereo not drawn) [Suc. monolaurate + HPC, ibuprofen]
Amount released [%] after 2 min: 100.8%

CC(C)Cc1ccc(C(C)C(=O)O)cc1 (stereo not drawn) [Example 14, ibuprofen]
Rate of dissolution (in words): good rate of dissolution

CC(C)Cc1ccc(C(C)C(=O)O)cc1 (stereo not drawn) [Solvent change without addition, ibuprofen]
Amount released [%] [2]: 0.0%
Amount released [%] [3]: 20.9%
Amount released [%] [4]: 48.9%
Amount released [%] [5]: 67.2%
Amount released [%] [6]: 76.5%
Amount released [%] [7]: 94.3%
Amount released [%] [8]: 100.0%

CC(C)Cc1ccc(C(C)C(=O)O)cc1 (stereo not drawn) [Example 18, ibuprofen]
Time after which a 100% release / dissolution is seen [1]: approximately 5 min

CC(C)Cc1ccc(C(C)C(=O)O)cc1 (stereo not drawn) [Example 4, ibuprofen]
Time after which a 100% release / dissolution is seen [1]: 5 min
Release / dissolution within (after) 2 minutes [1]: 85%

CC(C)Cc1ccc(C(C)C(=O)O)cc1 (stereo not drawn) [Example 1, ibuprofen]
Time after which a 100% release / dissolution is seen [1]: 15 min

COc1ccc2cc([C@H](C)C(=O)O)ccc2c1 [Example 2, naproxen]
Time after which a 100% release is seen [1]: 15 s
